Measured values: patent publication US8324264B1, “Inhibitors of bacterial biofilms and related methods” (Sequoia Sciences, Inc., priority 2011, dated 2012)
In brackets after ≈: the same amount, converted by molar mass. Where a name gives a salt, the structure may show the parent alone.

Tests used:
E. coli biofilms = assay: Biofilm growth assay (spreading biofilm on semi-solid agar), E. coli; type: cell-based; conditions: biofilm growth assay, overnight 37° C., vs negative controls, Tables 1-5; for IC85: Escherichia coli, read-out: E. coli: concentration that reduces the area of the spreading biofilm by greater than or equal to 85%
How it was run: (§1)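 Values are compound concentrations (μg/ml) that cut the spreading-biofilm zone area by ≥85% relative to negative controls after overnight 37 °C growth from 5 μL central inoculum. E. coli plates: LB, 0.6% agar, 0.5% glucose; P. aeruginosa plates: M8 agar plus 0.2% glucose, 100 μM CaCl2, 1 mM MgSO4, 0.5% Casamino acids.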

P. aeruginosa biofilms = assay: Biofilm growth assay (spreading biofilm on semi-solid agar), P. aeruginosa; type: cell-based; conditions: biofilm growth assay, overnight 37° C., vs negative controls, Tables 1-5; for IC85: Pseudomonas aeruginosa, read-out: P. aeruginosa: concentration that reduces the area of the spreading biofilm by greater than or equal to 85%
How it was run: as §1

| Compound | melting point | E. coli: concentration that reduces the area of the spreading biofilm by greater than or equal to 85% (E. coli biofilms) [µg/mL] | P. aeruginosa: concentration that reduces the area of the spreading biofilm by greater than or equal to 85% (P. aeruginosa biofilms) [µg/mL] | IC85 (E. coli biofilms) [µg/mL] | IC85 (P. aeruginosa biofilms) [µg/mL] |
| --- | --- | --- | --- | --- | --- |
| CC1(C)CC[C@]2(C(=O)Nc3cc(O)[nH]n3)CC[C@]3(C)C(=CCC4[C@@]5(C)Cc6c(n[nH]c6N)C(C)(C)C5CC[C@]43C)C2C1 (stereo partly drawn) (as salt: ammonium) [Compound 66, (4aS,6aS,6bR,13aR)-12-Amino-N-(5-hydroxy-1H-pyrazol-3-yl)-2,2,6a,6b,9,9,13a-heptamethyl-2,3,4,4a,5,6,6a,6b,7,8,8a,9,11,13,13a,13b,14,15b-octadecahydro-1H-chryseno[1,2-f]indazole-4-a-carboxamide] | 275 to 295 °C (dec.) |  |  |  |  |
| CC1(C)CC[C@]2(C(=O)Nc3nnc(N)s3)CC[C@]3(C)C(=CCC4[C@@]5(C)Cc6c(n[nH]c6N)C(C)(C)C5CC[C@]43C)C2C1 (stereo partly drawn) (as salt: ammonium) [Compound 71, (4aS,6aS,6bR,13aR)-12-Amino-N-(5-amino-1,3,4-thiadiazol-2-yl)-2,2,6a,6b,9,9,13a-heptamethyl-2,3,4,4a,5,6,6a,6b,7,8,8a,9,11,13,13a,13b,14,15b-octadecahydro-1H-chryseno[1,2-f]indazole-4-a-carboxamide] | 280 to 300 °C (dec.) |  |  |  |  |
| CC1(C)CC[C@]2(C(=O)n3ccnc3N)CC[C@]3(C)C(=CCC4[C@@]5(C)Cc6c(n[nH]c6N)C(C)(C)C5CC[C@]43C)C2C1 (stereo partly drawn) (as salt: ammonium) [Compound 73, (2-Amino-1H-imidazol-1-yl)((4aS,6aS,6bR,13aR)-12-amino-2,2,6a,6b,9,9,13a-heptamethyl-2,3,4,4a,5,6,6a,6b,7,8,8a,9,11,13,13a,13b,14,15b-octadecahydro-1H-chryseno[1,2-f]indazol-4-a-yl)methanone] | 230 to 250 °C (dec.) |  |  |  |  |
| CC1(C)CC[C@]2(C(=O)Nc3nnc(S)s3)CC[C@]3(C)C(=CCC4[C@@]5(C)Cc6c(n[nH]c6N)C(C)(C)C5CC[C@]43C)C2C1 (stereo partly drawn) (as salt: ammonium) [Compound 74, (4aS,6aS,6bR,13aR)-12-Amino-N-(5-mercapto-1,3,4-thiadiazol-2-yl)-2,2,6a,6b,9,9,13a-heptamethyl-2,3,4,4a,5,6,6a,6b,7,8,8a,9,11,13,13a,13b,14,15b-octadecahydro-1H-chryseno[1,2-f]indazole-4-a-carboxamide] | > 300 °C |  |  |  |  |
| CN1CCN(c2ccc(C3=C4C5CC(C)(C)CC[C@]5(C(=O)O)CC[C@@]4(C)[C@]4(C)CCC5C(C)(C)c6n[nH]c(N)c6C[C@]5(C)C4C3)cc2)CC1 (stereo partly drawn) [Example 53, (4aS,6aS,6bR,13aR)-12-Amino-2,2,6a,6b,9,9,13a-heptamethyl-15-(4-(4-methylpiperazin-1-yl)phenyl)-2,3,4,4a,5,6,6a,6b,7,8,8a,9,11,13,13a,13b,14,15b-octadecahydro-1H-chryseno[1,2-f]indazole-4-a-carboxylic acid] |  | 2 | 0.5 |  |  |
| CC1(C)CC[C@]2(C(=O)O)CC[C@]3(C)C(=C(c4ccc(N5CCOCC5)nc4)CC4[C@@]5(C)Cc6c(n[nH]c6N)C(C)(C)[C@@H]5CC[C@]43C)[C@@H]2C1 (stereo partly drawn) [Example 54, (4aS,6aS,6bR,8aR,13aR,15bS)-12-Amino-2,2,6a,6b,9,9,13a-heptamethyl-15-(6-morpholinopyridin-3-yl)-2,3,4,4a,5,6,6a,6b,7,8,8a,9,11,13,13a,13b,14,15b-octadecahydro-1H-chryseno[1,2-f]indazole-4-a-carboxylic acid] |  | 2 | 1 |  |  |
| CC1(C)CC[C@]2(C(=O)O)CC[C@]3(C)C(=C(c4ccc(N5CCNCC5)nc4)CC4[C@@]5(C)Cc6c(n[nH]c6N)C(C)(C)C5CC[C@]43C)C2C1 (stereo partly drawn) [Example 55, (4aS,6aS,6bR,13aR)-12-Amino-2,2,6a,6b,9,9,13a-heptamethyl-15-(6-(piperazin-1-yl)pyridin-3-yl)-2,3,4,4a,5,6,6a,6b,7,8,8a,9,11,13,13a,13b,14,15b-octadecahydro-1H-chryseno[1,2-f]indazole-4-a-carboxylic acid] |  | 2 | >1 |  |  |
| CN1CCN(c2ccc(C3=C4C5CC(C)(C)CC[C@]5(C(=O)O)CC[C@@]4(C)[C@]4(C)CCC5C(C)(C)c6n[nH]c(N)c6C[C@]5(C)C4C3)cn2)CC1 (stereo partly drawn) [Example 56, (4aS,6aS,6bR,13aR)-12-Amino-2,2,6a,6b,9,9,13a-heptamethyl-15-(6-(4-methylpiperazin-1-yl)pyridin-3-yl)-2,3,4,4a,5,6,6a,6b,7,8,8a,9,11,13,13a,13b,14,15b-octadecahydro-1H-chryseno[1,2-f]indazole-4-a-carboxylic acid] |  | 2 | 1 |  |  |
| CC1(C)CC[C@]2(C(=O)O)CC[C@]3(C)C(=C(c4ccc(N5CCC(N)CC5)nc4)CC4[C@@]5(C)Cc6c(n[nH]c6N)C(C)(C)C5CC[C@]43C)C2C1 (stereo partly drawn) [Example 57, (4aS,6aS,6bR,13aR)-12-Amino-15-(6-(4-aminopiperidin-1-yl)pyridin-3-yl)-2,2,6a,6b,9,9,13a-heptamethyl-2,3,4,4a,5,6,6a,6b,7,8,8a,9,11,13,13a,13b,14,15b-octadecahydro-1H-chryseno[1,2-f]indazole-4-a-carboxylic acid] |  | 1 | >2 |  |  |
| CC1(C)CC[C@]2(C(=O)O)CC[C@]3(C)C(=C(c4ccc(N5CCC(N)C5)nc4)CC4[C@@]5(C)Cc6c(n[nH]c6N)C(C)(C)C5CC[C@]43C)C2C1 (stereo partly drawn) [Example 58, (4a-8,6a8,6bR,13aR)-12-Amino-15-(6-(3-aminopyrrolidin-1-yl)pyridin-3-yl)-2,2,6a,6b,9,9,13a-heptamethyl-2,3,4,4a,5,6,6a,6b,7,8,8a,9,11,13,13a,13b,14,15b-octadecahydro-1H-chryseno[1,2-f]indazole-4-a-carboxylic acid] |  | 2 | 1 |  |  |
| CC1(C)CC[C@]2(C(=O)O)CC[C@]3(C)C(=C(c4ccccc4CN4CCOCC4)CC4[C@@]5(C)Cc6c(n[nH]c6N)C(C)(C)[C@@H]5CC[C@]43C)[C@@H]2C1 (stereo partly drawn) [Example 59, (4aS,6aS,6bR,8aR,13aR,15bS)-12-Amino-2,2,6a,6b,9,9,13a-heptamethyl-15-(2-(morpholinomethyl)phenyl)-2,3,4,4a,5,6,6a,6b,7,8,8a,9,11,13,13a,13b,14,15b-octadecahydro-1H-chryseno[1,2-f]indazole-4-a-carboxylic acid] |  | >1 | 0.5 |  |  |
| CC1(C)CC[C@]2(C(=O)O)CC[C@]3(C)C(=CCC4[C@@]5(C)CC6=NCN=C6C(C)(C)C5CC[C@]43C)C2C1 (stereo partly drawn) [F] |  |  |  | > 8 | 4 (≈ 8.36 µM) |
| CC1(C)CC[C@]2(C(=O)O)CC[C@]3(C)C(=CCC4[C@@]5(C)Cc6c(n[nH]c6CO)C(C)(C)C5CC[C@]43C)C2C1 (stereo partly drawn) [G] |  |  |  | > 8 | > 8 |
| CC1(C)CC[C@]2(C(=O)O)CC[C@]3(C)C(=CCC4[C@@]5(C)Cc6c(n[nH]c6Br)C(C)(C)C5CC[C@]43C)C2C1 (stereo partly drawn) [H] |  |  |  | > 8 | 8 (≈ 14.3 µM) |
| CNc1[nH]nc2c1C[C@@]1(C)C(CC[C@]3(C)C1CC=C1C4CC(C)(C)CC[C@]4(C(=O)O)CC[C@]13C)C2(C)C (stereo partly drawn) [I] |  |  |  | 8 (≈ 15.8 µM) | > 16 |
| CN(C)c1[nH]nc2c1C[C@@]1(C)C(CC[C@]3(C)C1CC=C1C4CC(C)(C)CC[C@]4(C(=O)O)CC[C@]13C)C2(C)C (stereo partly drawn) [J] |  |  |  | > 16 | > 16 |
| CC1(C)CC[C@]2(C(=O)O)CC[C@]3(C)C(=CC[C@@H]4[C@@]5(C)Cc6c(noc6N)C(C)(C)[C@@H]5CC[C@]43C)[C@@H]2C1 [K] |  |  |  | > 8 | > 8 |
| CC1(C)CC[C@]2(C(=O)O)CC[C@]3(C)[C@H](C(=O)C=C4[C@@]5(C)C=C(C#N)C(=O)C(C)(C)[C@@H]5CC[C@]43C)[C@@H]2C1 [L] |  |  |  | > 16 | > 16 |
| CC1(C)CC[C@]2(C(=O)O)CC[C@]3(C)C(C(=O)C=C4[C@@]5(C)Cc6c(n[nH]c6N)C(C)(C)[C@@H]5CC[C@]43C)[C@@H]2C1 (stereo partly drawn) [M] |  |  |  | 8 (≈ 15.8 µM) | 8 (≈ 15.8 µM) |
| CC1(C)CC[C@]2(C(=O)O)CC[C@]3(C)C(=C(CO)CC4[C@@]5(C)Cc6c(n[nH]c6N)C(C)(C)[C@@H]5CC[C@]43C)[C@@H]2C1 (stereo partly drawn) [N] |  |  |  | 8 (≈ 15.3 µM) | 8 (≈ 15.3 µM) |
| C[C@H]1[C@H](C)CC[C@]2(C(=O)O)CC[C@]3(C)C(=CC[C@@H]4[C@@]5(C)CC[C@H](O)C(C)(C)[C@@H]5CC[C@]43C)[C@H]12 [Ursolic acid, ursolic acid, reference compound] |  |  |  | 8 (≈ 17.5 µM) | 8 (≈ 17.5 µM) |
| C[C@H]1[C@H](C)CC[C@]2(CO)CC[C@]3(C)C(=CC[C@@H]4[C@@]5(C)CC[C@H](O)C(C)(C)[C@@H]5CC[C@]43C)[C@H]12 [Uvaol, reference compound] |  |  |  | > 8 | > 128 |
| Lupeol [reference compound] |  | >8 | >16 |  |  |
